Data taken from ChEMBL document CHEMBL1133820, “Total synthesis and antifungal activity of 9-methoxystrobilurin L as the originally proposed 1,4-benzodioxan structure” (2001).
Calls of active or inactive are those of the source. The calls are words filed in the database; no cut-off is given here.

What was measured:
Candida albicans [1] = test: Antifungal activity against Candida albicans determined as diameter of inhibition zone at a concentration of 0.1 ug/disk; Not effective; format: functional, organism-based
Candida albicans [2] = test: Antifungal activity against Candida albicans determined as diameter of inhibition zone at a concentration of 1 ug/disk; Not effective; format: functional, organism-based
Fusarium solani [3] = test: Antifungal activity against Fusarium solani determined as diameter of inhibition zone at a concentration of 0.1 ug/disk; Not effective; format: functional, organism-based
Fusarium solani [4] = test: Antifungal activity against Fusarium solani determined as diameter of inhibition zone at a concentration of 1 ug/disk; Not effective; format: functional, organism-based
Penicillium citrinum [5] = test: Antifungal activity against Penicillium citrium determined as diameter of inhibition zone at a concentration of 0.1 ug/disk; Not effective; format: functional, organism-based
Penicillium citrinum [6] = test: Antifungal activity against Penicillium citrium determined as diameter of inhibition zone at a concentration of 1 ug/disk; Not effective; format: functional, organism-based
Penicillium citrinum [7] = test: Antifungal activity against Penicillium citrium determined as diameter of inhibition zone at a concentration of 10 ug/disk; Not effective; format: functional, organism-based
Saccharomyces cerevisiae [8] = test: Antifungal activity against Saccharomyces cerevisiae determined as diameter of inhibition zone at a concentration of 0.1 ug/disk; Not effective; format: functional, organism-based
Aspergillus fumigatus [9] = test: Antifungal activity against Aspergillus fumigatus determined as diameter of inhibition zone at a concentration of 0.1 ug/disk; Slightly effective; format: functional, organism-based
Saccharomyces cerevisiae [10] = test: Antifungal activity against Saccharomyces cerevisiae determined as diameter of inhibition zone at a concentration of 1 ug/disk; Not effective; format: functional, organism-based
Aspergillus fumigatus [11] = test: Antifungal activity against Aspergillus fumigatus determined as diameter of inhibition zone at a concentration of 10 ug/disk; format: functional
Aspergillus fumigatus [12] = test: Antifungal activity against Aspergillus fumigatus determined as diameter of inhibition zone at a concentration of 1 ug/disk; Slightly effective; format: functional, organism-based
Candida albicans [13] = test: Antifungal activity against Candida albicans determined as diameter of inhibition zone at a concentration of 1 ug/disk; Slightly effective; format: functional, organism-based
Candida albicans [14] = test: Antifungal activity against Candida albicans determined as diameter of inhibition zone at a concentration of 10 ug/disk; format: functional
Fusarium solani [15] = test: Antifungal activity against Fusarium solani determined as diameter of inhibition zone at a concentration of 10 ug/disk; Not effective; format: functional, organism-based
Saccharomyces cerevisiae [16] = test: Antifungal activity against Saccharomyces cerevisiae determined as diameter of inhibition zone at a concentration of 1 ug/disk; Slightly effective; format: functional, organism-based
Saccharomyces cerevisiae [17] = test: Antifungal activity against Saccharomyces cerevisiae determined as diameter of inhibition zone at a concentration of 10 ug/disk; format: functional
Saccharomyces cerevisiae [18] = test: Antifungal activity against Saccharomyces cerevisiae determined as diameter of inhibition zone at a concentration of 0.1 ug/disk; Slightly effective; format: functional, organism-based
Aspergillus fumigatus [19] = test: Antifungal activity against Aspergillus fumigatus determined as diameter of inhibition zone at a concentration of 10 ug/disk (expt 2); format: functional, organism-based
Candida albicans [20] = test: Antifungal activity against Candida albicans determined as diameter of inhibition zone at a concentration of 10 ug/disk (expt 1); format: functional, organism-based
Penicillium citrinum [21] = test: Antifungal activity against Penicillium citrium determined as diameter of inhibition zone at a concentration of 10 ug/disk (expt 1); format: functional, organism-based
Penicillium citrinum [22] = test: Antifungal activity against Penicillium citrium determined as diameter of inhibition zone at a concentration of 10 ug/disk (expt 2); Not effective; format: functional, organism-based
Saccharomyces cerevisiae [23] = test: Antifungal activity against Saccharomyces cerevisiae determined as diameter of inhibition zone at a concentration of 10 ug/disk (expt 1); format: functional, organism-based
Saccharomyces cerevisiae [24] = test: Antifungal activity against Saccharomyces cerevisiae determined as diameter of inhibition zone at a concentration of 10 ug/disk (expt 2); format: functional, organism-based
Aspergillus fumigatus [25] = test: Antifungal activity against Aspergillus fumigatus determined as diameter of inhibition zone at a concentration of 10 ug/disk (expt 1); format: functional, organism-based
Candida albicans [26] = test: Antifungal activity against Candida albicans determined as diameter of inhibition zone at a concentration of 10 ug/disk (expt 2); format: functional, organism-based

| Compound | Diameter of inhibition zone (Candida albicans [1]) | Diameter of inhibition zone (Fusarium solani [3]) | Diameter of inhibition zone (Fusarium solani [4]) | Diameter of inhibition zone (Penicillium citrinum [5]) | Diameter of inhibition zone (Penicillium citrinum [6]) | Diameter of inhibition zone (Penicillium citrinum [7]) | Diameter of inhibition zone (Saccharomyces cerevisiae [8]) | Diameter of inhibition zone (Aspergillus fumigatus [9]) | also measured |
| --- | --- | --- | --- | --- | --- | --- | --- | --- | --- |
| C=CC(C)(C)OC(C)(C)[C@@H]1COc2ccc(/C=C/C(OC)=C(C)\C(=C/OC)C(=O)OC)cc2O1 | inactive | inactive | inactive | inactive | inactive | inactive | inactive | Slightly effective | Diameter of inhibition zone (Candida albicans [2]): inactive; Diameter of inhibition zone (Saccharomyces cerevisiae [10]): inactive |
| C=CC(C)(C)OC(C)(C)[C@H]1COc2ccc(/C=C/C(OC)=C(C)\C(=C/OC)C(=O)OC)cc2O1 | inactive | inactive | inactive | inactive | inactive | inactive | inactive | Slightly effective | Diameter of inhibition zone (Aspergillus fumigatus [11]): 8 mm; Diameter of inhibition zone (Aspergillus fumigatus [12]): Slightly effective; Diameter of inhibition zone (Candida albicans [13]): Slightly effective; Diameter of inhibition zone (Candida albicans [14]): 8 mm; Diameter of inhibition zone (Fusarium solani [15]): inactive; Diameter of inhibition zone (Saccharomyces cerevisiae [16]): Slightly effective; Diameter of inhibition zone (Saccharomyces cerevisiae [17]): 8 mm |
| C=CC(C)(C)O[C@H]1COc2ccc(/C=C/C(OC)=C(C)\C(=C\OC)C(=O)OC)cc2OC1(C)C | inactive | inactive | – | inactive | inactive | – | – | Slightly effective | Diameter of inhibition zone (Saccharomyces cerevisiae [18]): Slightly effective |
| NYSTATIN | – | – | – | – | – | – | – | – | Diameter of inhibition zone (Aspergillus fumigatus [19]): 8 mm; Diameter of inhibition zone (Candida albicans [20]): 16 mm; Diameter of inhibition zone (Penicillium citrinum [21]): 10 mm; Diameter of inhibition zone (Penicillium citrinum [22]): inactive; Diameter of inhibition zone (Saccharomyces cerevisiae [23]): 17 mm; Diameter of inhibition zone (Saccharomyces cerevisiae [24]): 8 mm; Diameter of inhibition zone (Aspergillus fumigatus [25]): 12 mm; Diameter of inhibition zone (Candida albicans [26]): 10 mm |
